# Measurements as given in article PMC8878317, “Chemogenomics identifies acetyl-coenzyme A synthetase as a target for malaria treatment and prevention” (Cell Chemical Biology, 2022).
# Tests used:
# PfAcAS A597V = molecular target: T1, PfAcAS A597V (Plasmodium falciparum, UniProt C6KTB4, A597V); test: EnzChek assay, recombinant PfAcAS A597V; type: biochemical, P. falciparum; settings: substrate varied, other two saturating
# T1 sequence (C6KTB4 1-997 A597V): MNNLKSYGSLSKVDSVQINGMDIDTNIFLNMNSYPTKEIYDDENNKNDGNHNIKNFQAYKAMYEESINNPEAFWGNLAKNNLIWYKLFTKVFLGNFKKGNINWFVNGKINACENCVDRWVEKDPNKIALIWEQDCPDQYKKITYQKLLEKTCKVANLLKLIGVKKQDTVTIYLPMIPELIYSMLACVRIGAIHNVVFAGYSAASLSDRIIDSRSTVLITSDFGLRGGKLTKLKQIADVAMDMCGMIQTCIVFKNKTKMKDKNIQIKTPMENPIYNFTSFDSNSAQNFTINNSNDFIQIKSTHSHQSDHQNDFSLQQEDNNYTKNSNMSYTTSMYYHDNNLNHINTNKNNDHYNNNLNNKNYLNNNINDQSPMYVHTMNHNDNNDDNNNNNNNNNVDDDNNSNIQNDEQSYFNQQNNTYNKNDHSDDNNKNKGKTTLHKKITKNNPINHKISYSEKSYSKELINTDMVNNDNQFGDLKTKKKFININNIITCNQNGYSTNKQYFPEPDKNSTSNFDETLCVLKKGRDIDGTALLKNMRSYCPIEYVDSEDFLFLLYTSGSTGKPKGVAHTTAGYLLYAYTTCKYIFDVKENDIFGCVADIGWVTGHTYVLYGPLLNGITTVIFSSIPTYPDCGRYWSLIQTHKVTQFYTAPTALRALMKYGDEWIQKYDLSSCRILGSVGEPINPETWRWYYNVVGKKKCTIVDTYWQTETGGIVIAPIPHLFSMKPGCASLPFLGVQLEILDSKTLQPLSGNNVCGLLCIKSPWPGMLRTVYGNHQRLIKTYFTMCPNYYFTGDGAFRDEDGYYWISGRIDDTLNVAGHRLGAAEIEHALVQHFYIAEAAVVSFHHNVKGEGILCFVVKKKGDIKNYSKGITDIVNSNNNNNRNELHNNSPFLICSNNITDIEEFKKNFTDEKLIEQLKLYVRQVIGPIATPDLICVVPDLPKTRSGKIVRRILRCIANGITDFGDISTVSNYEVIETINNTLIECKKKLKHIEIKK
# Method: (§1) Steady-state kinetic measurements were conducted at room temperature using a PheraStar plate reader (BMG). The first step of the reaction of PfAcAS, which produces inorganic pyrophosphate (PPi) that is converted to two molecules of inorganic phosphate using a pyrophosphatase enzyme, was continuously monitored using the EnzChek Phosphate Assay Kit, which gives an absorbance readout at 360 nm (Figure 4A) ([Webb, 1992]). […] By adding CoA, the reaction rapidly proceeds to the second step resulting in further release of pyrophosphate, making the EnzChek assay a suitable option to continuously monitor the activity of PfAcAS. Typical kinetic assays were carried out in clear, flat-bottom, polystyrene, 384-well plates (Greiner) in an 80 μL reaction volume containing 100 mM HEPES (pH7.4), 100 mM NaCl, 250 mM KCl, 50 mM MgCl2, 1 mM DTT, 0.004% Tween 20, 0.5 U/mL pyrophosphatase, 0.1 mM MESG, 0.5 U/mL PNP, 2 mM ATP, 2 mM acetate, 0.5 mM CoA and 5 nM recombinant PfAcAS WT or 10 nM recombinant PfAcAS A597V or T648M. Assays were performed by adding 40 μL of a 2-times concentrated substrate mixture including MESG to all wells, and the reactions started by adding 40 μL of a 2-times concentrated reaction mixture containing all other components. The reactions were carried out for 2 to 4 hr with absorbance readings at 360 nm every two to four minutes. Reaction rates were extracted from the linear phase of activity, usually using 10 to 20 points between times of 30 and 100 min of the reactions. Using a phosphate standard curve obtained under the same buffer conditions used for the PfAcAS reactions (Figure S5A), the rates were then converted to velocity per second, conversion of one nanomolar of phosphate, per nanomolar of enzyme, per second. The substrates Km values were determined by varying the concentration of one of the substrates at saturating concentration of the other two substrates. Steady-state data were fitted using the nonlinear, least-squares, curve-fitting programs of Sigma-Plot for Windows, version 14.0. Individual saturation curves were fit to Equation 1(Equation 1) v=VS/K+S where V is the maximal velocity, S is the substrate concentration and K is the Michaelis constant for the substrate (Km). Individual saturation curves displaying substrate inhibition were fit to Equation 2(Equation 2) v=VS/K+S×(1+S/Ks) where Ks is the substrate inhibition constant.
# (§2) To determine the steady-state inhibition parameters and patterns associated with both inhibitors, PfAcAS activity was studied in the presence of variable concentrations of one substrate, ATP, acetate or CoA, fixed saturating concentration of the other two substrates (acetate and CoA, ATP and CoA, or ATP and acetate) and several fixed concentrations of inhibitor. Assay ready plates containing different concentrations of inhibitor were prepared using an Echo 550 acoustic dispenser (Labcyte Inc.). The assays were carried out as described in the previous section. […] For better comparison between both inhibitors and proteins, the ymin was fixed to zero and the ymax to 100. Inhibition data showing linear, competitive patterns in double-reciprocal plots were fit to Equation 4(Equation 4) v=VS/K(1+I/Ki)+S where Ki is the dissociation constant for the enzyme-inhibitor complex. Inhibition data showing linear, mixed inhibition patterns in double-reciprocal plots were fit to Equation 5(Equation 5) v=VS/K(1+I/Kis)+S(1+I/Kii) where Kis is the dissociation constant for the free enzyme-inhibitor complex and Kii is the dissociation constant for the enzyme-substrate-inhibitor complex. Inhibition data showing linear, uncompetitive patterns in double-reciprocal plots were fit to Equation 6(Equation 6) v=VS/K+S(1+I/Ki)
# PfAcAS T648M = molecular target: T2, PfAcAS T648M (Plasmodium falciparum, UniProt C6KTB4, T648M); test: EnzChek assay, recombinant PfAcAS T648M; type: biochemical, P. falciparum; settings: substrate varied, other two saturating
# T2 sequence (C6KTB4 1-997 T648M): T1 sequence (C6KTB4 1-997 A597V)
# Method: as §1, §2
# PfAcAS WT = PfAcAS WT (Plasmodium falciparum, UniProt C6KTB4); test: EnzChek assay, recombinant PfAcAS WT (steady-state kinetics and IC50); type: biochemical, P. falciparum; settings: substrate varied, other two saturating
# Method: as §1, §2
# [1] = test system: P. falciparum 3D7 parasites; test: Metabolomic profiling of compound-treated parasites (LC/MS); type: cell-based; set-up: Metabolite data: dTMP / Metabolite data: GMP / Metabolite data: S-Adenosyl-L-Homocysteine / Metabolite data: 1_3-Bisphosphoglyceric acid: scale not given here;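 on Metabolite data: 3-Phosphoglycerate: Log2 fold change in abundance versus untreated parasite controls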;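 on Metabolite data: Myo-Inositol: Log2 fold change in abundance versus untreated parasite controls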;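 on Metabolite data: N-Carbamoyl-L-Aspartate: Log2 fold change in abundance versus untreated parasite controls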;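 on Metabolite data: Nicotinate: Log2 fold change in abundance versus untreated parasite controls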
# Method in brief: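 Magnetically purified trophozoites (1×10^8 parasites/mL) recovered 1 h in RPMI 1640, incubated a further 2.5 h, quenched in 90% methanol with labeled aspartate. Extracts analysed by reverse-phase C18 LC with negative-mode Orbitrap MS; peak areas normalized to internal standards, blank-subtracted and averaged by condition.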
compound,measurement,setting,value
Nc1ncnc2c1ncn2[C@@H]1O[C@H](COP(=O)(O)OP(=O)(O)OP(=O)(O)O)[C@@H](O)[C@H]1O [ATP],Km,PfAcAS A597V,140 ± 5 µM
same,"Vmax (s-1), PfAcAS A597V",PfAcAS A597V,0.54 ± 0.01 s⁻¹
same,Km,PfAcAS T648M,400 ± 17 µM
same,"Vmax (s-1), PfAcAS T648M",PfAcAS T648M,1.9 ± 0.03 s⁻¹
same,Km,PfAcAS WT,93 µM
same,"Vmax (s-1), PfAcAS WT",PfAcAS WT,2.4 ± 0.03 s⁻¹
CC1(C)N=C(N)N=C(N)N1OCCCOc1cc(Cl)c(Cl)cc1Cl [WR99210],Metabolite data: 1_3-Bisphosphoglyceric acid,[1],0
same,Metabolite data: 2_3-Diphosphoglyceric acid,[1],0.15
same,Metabolite data: 3-Phosphoglycerate,[1],0
same,Metabolite data: 4-Aminobutyrate,[1],0.89
same,Metabolite data: 4-Phosphopantothenate,[1],0.06
same,Metabolite data: 4-phosphopantetheine,[1],0
same,Metabolite data: 5-aminopentanoic acid,[1],0
same,Metabolite data: 5-phosphoribosyl-1-pyrophosphate,[1],0
same,Metabolite data: 6-Phospho-D-Gluconate,[1],0.03
same,Metabolite data: ADP-D-Glucose,[1],-0.24
same,Metabolite data: Acetyl-CoA,[1],0.03
same,Metabolite data: Acetyllysine,[1],0.3
same,Metabolite data: Aconitate,[1],-0.02
same,Metabolite data: CDP,[1],0.18
same,Metabolite data: CDP-Ethanolamine,[1],0.69
same,Metabolite data: CDP-choline,[1],0
same,Metabolite data: CMP,[1],-0.07
same,Metabolite data: CTP,[1],-0.11
same,Metabolite data: Citrate/Isocitrate,[1],0.01
same,Metabolite data: Cyclic-AMP,[1],0
same,Metabolite data: Dihydroorotate,[1],0.21
same,Metabolite data: FAD,[1],0.03
same,Metabolite data: FMN,[1],-0.26
same,"Metabolite data: Fructose-1,6-Bisphosphate",[1],0
same,Metabolite data: Fumarate,[1],0.11
same,Metabolite data: GDP,[1],0.23
same,Metabolite data: GMP,[1],0.07
same,Metabolite data: GTP,[1],-0.36
same,Metabolite data: Glucose-1/6-Phosphate,[1],-0.02
same,Metabolite data: Glutathione Disulfide,[1],0.14
same,Metabolite data: Hexose,[1],0
same,Metabolite data: Hydroxyisocaproic acid,[1],0
same,Metabolite data: Indole,[1],0.05
same,Metabolite data: Ketoleucine,[1],0
same,Metabolite data: L-arginino-succinate,[1],0
same,Metabolite data: Lactate,[1],0.42
same,Metabolite data: Malate,[1],0.06
same,Metabolite data: Myo-Inositol,[1],0.64
same,Metabolite data: N-Acetyl-Glutamate,[1],0.09
same,Metabolite data: N-Acetyl-L-Alanine,[1],0.02
same,Metabolite data: N-Acetyl-L-Ornithine,[1],0.2
same,Metabolite data: N-Carbamoyl-L-Aspartate,[1],0.03
same,Metabolite data: NAD+,[1],0.17
same,Metabolite data: NADH,[1],3.14
same,Metabolite data: NADP+,[1],0.03
same,Metabolite data: NADPH,[1],0.5
same,Metabolite data: Nicotinate,[1],0.23
same,Metabolite data: Octulose 8/1-Phosphate,[1],0.08
same,Metabolite data: Orotate,[1],0.09
same,Metabolite data: PD,[1],0
same,Metabolite data: PE,[1],0
same,Metabolite data: PEEK,[1],0
same,Metabolite data: Phenol Red,[1],0
same,Metabolite data: Pyroglutamic acid,[1],0.03
same,Metabolite data: S-Adenosyl-L-Homocysteine,[1],0
same,Metabolite data: S-methyl-5'-thioadenosine,[1],0.14
same,Metabolite data: SD,[1],0
same,Metabolite data: Sedoheptulose Bisphosphate,[1],0.08
same,Metabolite data: UDP,[1],0.22
same,Metabolite data: UDP-D-Glucose,[1],0.05
same,Metabolite data: UDP-D-Glucuronate,[1],0.01
same,Metabolite data: UDP-N-Acetyl-Glucosamine,[1],0.06
same,Metabolite data: UMP,[1],0
same,Metabolite data: UTP,[1],-0.42
same,Metabolite data: a-ketoglutarate,[1],0.08
same,Metabolite data: acetyl-aspartate,[1],0
same,Metabolite data: arginine,[1],0
same,Metabolite data: asparagine,[1],0
same,Metabolite data: aspartate,[1],0
same,Metabolite data: biotin,[1],0
same,Metabolite data: chlorpropamide,[1],0
same,Metabolite data: coenzyme A,[1],0
same,Metabolite data: dAMP,[1],-0.3
same,Metabolite data: dATP,[1],-0.89
same,Metabolite data: dCDP,[1],0.46
same,Metabolite data: dCMP,[1],0.32
same,Metabolite data: dCTP,[1],0.42
same,Metabolite data: dGDP/ADP,[1],0
same,Metabolite data: dGMP/AMP,[1],0
same,Metabolite data: dGTP/ATP,[1],0
same,Metabolite data: dTDP,[1],0.16
same,Metabolite data: dTMP,[1],-0.05
same,Metabolite data: dTTP,[1],-0.28
same,Metabolite data: folate,[1],0
same,Metabolite data: glucono-lactone,[1],0
same,Metabolite data: glutamate,[1],0
same,Metabolite data: glutamine,[1],0
same,Metabolite data: glutathione,[1],0
same,Metabolite data: histidine,[1],0
same,Metabolite data: hydroxyproline/Aminolevulinate,[1],0
same,Metabolite data: isoleucine,[1],0
same,Metabolite data: leucine,[1],0
same,Metabolite data: maleic acid,[1],0
same,Metabolite data: methionine,[1],0
same,Metabolite data: nicotinamide mononucleotide,[1],0
same,Metabolite data: orotidine-5'-phosphate,[1],0
